In ChEMBL document CHEMBL1201862, “PubChem BioAssay data set” (2004):
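These data come from cells grown in 96-well plates and exposed to compound for 48 hours at five concentrations. GI50 is the concentration that inhibits growth by half.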 Activity calls are given as the source filed them. Rule as the data show it: active = GI50 up to about 1.1 µM and inactive = higher.

Assays:
Assay in all cases: NCI anticancer screen, dose series, 48 h
[1] = tested on: OVCAR-8
[2] = tested on: PC-3
[3] = tested on: SK-MEL-28
[4] = tested on: HL-60
[5] = tested on: SF-268
[6] = tested on: HCC 2998
[7] = tested on: SR
[8] = tested on: RXF 393
[9] = tested on: Hs-578T
[10] = tested on: KM12
[11] = tested on: HCT-116
[12] = tested on: LOX IMVI
[13] = tested on: SF-539
[14] = tested on: CCRF-CEM
[15] = tested on: SK-MEL-5
[16] = tested on: NCI/ADR-RES
[17] = tested on: RPMI-8226
[18] = tested on: Malme-3M
[19] = tested on: SN12C
[20] = tested on: T47D
[21] = tested on: SK-OV-3
[22] = tested on: MCF7
[23] = tested on: SNB-19
[24] = tested on: SNB-75
[25] = tested on: EKVX
[26] = tested on: CAKI-1
[27] = tested on: HOP-92
[28] = tested on: MDA-N
[29] = tested on: NCI-H522
[30] = tested on: HT-29
[31] = tested on: MDA-MB-231
[32] = tested on: BT-549
[33] = tested on: UACC-62
[34] = tested on: SK-MEL-2
[35] = tested on: 786-0
[36] = tested on: HCT-15
[37] = tested on: UO-31
[38] = tested on: SW-620
[39] = tested on: COLO 205
[40] = tested on: OVCAR-5
[41] = tested on: ACHN
[42] = tested on: U-251
[43] = tested on: A549
[44] = tested on: MOLT-4
[45] = tested on: MDA-MB-435
[46] = tested on: K562
[47] = tested on: IGROV-1
[48] = tested on: M14
[49] = tested on: NCI-H226
[50] = tested on: TK-10
[51] = tested on: NCI-H23
[52] = tested on: OVCAR-4
[53] = tested on: HOP-62
[54] = tested on: OVCAR-3
[55] = tested on: SF-295
[56] = tested on: DU-145
[57] = tested on: UACC-257
[58] = tested on: A498
[59] = tested on: NCI-H460

`N#CC1=C(N)N(/N=C/c2ccccc2)C(c2ccccc2)C1(C#N)C#N` (centres undefined) was tested, and the GI50 [1] was 18.7 µM (inactive), the GI50 [2] was 16.4 µM (inactive) and the GI50 [3] was 4.79 µM (inactive). For the same molecule, the GI50 [4] was 2.19 µM (inactive), the GI50 [5] was 20.7 µM (inactive) and the GI50 [6] was 19.6 µM (inactive). For the same molecule, the GI50 [7] was 2.26 µM (inactive), the GI50 [8] was 3.39 µM (inactive) and the GI50 [9] was 24.1 µM (inactive). The GI50 [10] was 22.8 µM (inactive), the GI50 [11] was 2.81 µM (inactive) and the GI50 [12] was 4.14 µM (inactive). For the same molecule, the GI50 [13] was 16.5 µM (inactive), the GI50 [14] was 1.9 µM (inactive) and the GI50 [15] was 14.2 µM (inactive). For the same molecule, the GI50 [16] was 21.6 µM (inactive), the GI50 [17] was 4.94 µM (inactive) and the GI50 [18] was 2.07 µM (inactive). For the same molecule, the GI50 [19] was 14.6 µM (inactive), the GI50 [20] was 6.87 µM (inactive) and the GI50 [21] was 12.6 µM (inactive). The GI50 [22] was 8.17 µM (inactive), the GI50 [23] was 23.1 µM (inactive) and the GI50 [24] was 16.9 µM (inactive). The GI50 [25] was 20.2 µM (inactive), the GI50 [26] was 4.61 µM (inactive) and the GI50 [27] was 2.98 µM (inactive). For the same molecule, the GI50 [28] was 16.1 µM (inactive), the GI50 [29] was 4.38 µM (inactive) and the GI50 [30] was 4 µM (inactive). The GI50 [31] was 17 µM (inactive), the GI50 [32] was 14.6 µM (inactive) and the GI50 [33] was 13.5 µM (inactive). The GI50 [34] was 17.2 µM (inactive), the GI50 [35] was 4.7 µM (inactive) and the GI50 [36] was 6.75 µM. The GI50 [37] was 15.7 µM (inactive), the GI50 [38] was 5.18 µM (inactive) and the GI50 [39] was 2.19 µM (inactive). For the same molecule, the GI50 [40] was 18.7 µM (inactive), the GI50 [41] was 4.3 µM (inactive) and the GI50 [42] was 17.7 µM (inactive). For the same molecule, the GI50 [43] was 18.7 µM (inactive), the GI50 [44] was 2.23 µM (inactive) and the GI50 [45] was 18.2 µM (inactive). The GI50 [46] was 2.98 µM (inactive), the GI50 [47] was 13.7 µM (inactive) and the GI50 [48] was 12.6 µM (inactive). The GI50 [49] was 18.6 µM (inactive), the GI50 [50] was 6.3 µM (inactive) and the GI50 [51] was 17.9 µM (inactive). For the same molecule, the GI50 [52] was 14.9 µM (inactive), the GI50 [53] was 16.8 µM (inactive) and the GI50 [54] was 4.89 µM (inactive). For the same molecule, the GI50 [55] was 17.1 µM (inactive), the GI50 [56] was 16.5 µM (inactive) and the GI50 [57] was 9.38 µM (inactive). For the same molecule, the GI50 [58] was 15.9 µM (inactive).
In the case of `O=[N+]([O-])c1cc2c(c([N+](=O)[O-])c1)NCc1ccccc1O2`, the GI50 [1] is reported as 71.1 µM (inactive), the GI50 [2] is reported as > 100 µM (inactive) and the GI50 [3] is reported as > 100 µM (inactive). For the same molecule, the GI50 [4] was > 100 µM (inactive), the GI50 [5] was > 100 µM (inactive) and the GI50 [6] was > 100 µM (inactive). For the same molecule, the GI50 [7] was 55.5 µM (inactive), the GI50 [8] was 16 µM (inactive) and the GI50 [9] was 70.8 µM (inactive). The GI50 [10] was > 100 µM (inactive), the GI50 [11] was > 100 µM (inactive) and the GI50 [12] was > 100 µM (inactive). For the same molecule, the GI50 [13] was 69.3 µM (inactive), the GI50 [14] was 24.3 µM (inactive) and the GI50 [15] was > 100 µM (inactive). For the same molecule, the GI50 [16] was > 100 µM (inactive), the GI50 [17] was > 100 µM (inactive) and the GI50 [18] was > 100 µM (inactive). The GI50 [19] was > 100 µM (inactive), the GI50 [20] was > 100 µM (inactive) and the GI50 [22] was > 100 µM (inactive). For the same molecule, the GI50 [24] was 12.9 µM (inactive), the GI50 [25] was > 100 µM (inactive) and the GI50 [26] was 14.9 µM (inactive). For the same molecule, the GI50 [27] was > 100 µM (inactive), the GI50 [28] was > 100 µM (inactive) and the GI50 [29] was > 100 µM (inactive). The GI50 [30] was > 100 µM (inactive), the GI50 [31] was > 100 µM (inactive) and the GI50 [32] was > 100 µM (inactive). For the same molecule, the GI50 [33] was > 100 µM (inactive), the GI50 [34] was 76.6 µM (inactive) and the GI50 [35] was 43.4 µM (inactive). For the same molecule, the GI50 [36] was > 100 µM, the GI50 [37] was > 100 µM (inactive) and the GI50 [38] was > 100 µM (inactive). The GI50 [39] was > 100 µM (inactive), the GI50 [40] was > 100 µM (inactive) and the GI50 [41] was > 100 µM (inactive). The GI50 [42] was 41.2 µM (inactive), the GI50 [43] was > 100 µM (inactive) and the GI50 [44] was 59.2 µM (inactive). For the same molecule, the GI50 [45] was > 100 µM (inactive), the GI50 [46] was > 10 µM (inactive) and the GI50 [47] was > 100 µM (inactive). For the same molecule, the GI50 [49] was > 100 µM (inactive), the GI50 [50] was > 100 µM (inactive) and the GI50 [59] was > 100 µM (inactive). For the same molecule, the GI50 [51] was > 100 µM (inactive), the GI50 [52] was 70.5 µM (inactive) and the GI50 [53] was 30.8 µM (inactive). For the same molecule, the GI50 [54] was > 100 µM (inactive), the GI50 [55] was > 100 µM (inactive) and the GI50 [56] was > 100 µM (inactive). The GI50 [57] was > 100 µM (inactive) and the GI50 [58] was > 100 µM (inactive).
